From patent US20120142609A1, “NON HUMAN ANIMAL MODELS FOR INCREASED RETINAL VASCULAR PERMEABILITY” (priority 2009, published 2012)

Test system: Müller glial cells
Assay: Osmotic Müller cell swelling in acutely isolated retinal slices under hypotonic challenge
Type: cell-based, mouse
Conditions: for effect on osmotic swelling of Müller cells (FIG. 3C): hypotonic challenge
Procedure: Müller cell swelling: To determine volume changes of Müller glial cells evoked by hypotonic stress, the cross-sectional area of glial cell somata in the inner nuclear layer of retinal slices was measured. Acutely isolated slices (thickness, 1 mm) were prepared from untreated control eyes and from the detached retinal area of operated eyes from C57BL/6 and Dp71-null mice, placed in a perfusion chamber and loaded with the vital dye Mitotracker Orange (10 μM). This dye is selectively taken up by Müller glial cells whereas retinal neurons, astrocytes, and microglial cells remain unstained. The stock solution of the dye was prepared in dimethylsulfoxide and resolved in saline. The slices were examined with a confocal laser scanning microscope LSM 510 Meta (Zeiss, Oberkochen, Germany). Mitotracker Orange was excited at 543 nm, and emission was recorded with a 560 nm long-pass filter. To assure that the maximum soma areas were precisely recorded, the focal plane was continuously adjusted in the course of the experiments.
A gravity-fed system with multiple reservoirs was used to perfuse the recording chamber continuously with extracellular solution; the hypotonic solution and test substances were added by rapid change of the perfusate. The extracellular solution consisted of (in mM) […], 3 KCl, 2 CaCl2, 1 MgCl2, 10 HEPES, and 11 glucose, adjusted to pH 7.4 with Tris. The hypotonic solution (60% of control osmolarity) was made up by adding distilled water. BaCl2 (1 mM) was preincubated for 10 minutes in extracellular solution before application within hypotonic solution. Blocking substances were preincubated for 15 to 45 minutes, and adenosine was administered simultaneously with the hypotonic solution. Swelling experiments were performed at room temperature.
To determine the extent of glial soma swelling, the cross-sectional area of Mitotracker Orange-stained cell bodies in the inner nuclear layer of retinal slices was measured off-line using the image analysis software of the LSM. Bar diagrams display the mean (+SEM) cross-sectional area of cell somata that was measured after 4-minute perfusion with hypotonic solution, in percent of the soma area measured before osmotic challenge (100%).

[1] = control retina from Dp71-null mice

Question: `[Ba+2].[Cl-].[Cl-]` [Ba^2+, barium chloride] was tested. Which “effect on Müller cell soma area under hypotonic challenge (FIG. 3B)” value [1] did it give?
Answer: Its value is “no effect”.

Question: What about the “effect on Müller cell soma area under hypotonic challenge (FIG. 3B)” value (control retina from wt mice) of the same compound?
Answer: The value was “induced a swelling”.

Question: And the “cross-sectional area of Müller cell somata after 4-minute perfusion with hypotonic solution, in percent of the soma area before osmotic challenge” value (slices from control retinas of C57BL/6 (wt) mice, BaCl2 1 mM, 102.0±1.0% without Ba2+)?
Answer: The value was 111.5±1.6%.

Question: And the “cross-sectional area of Müller cell somata after 4-minute perfusion with hypotonic solution, in percent of the soma area before osmotic challenge” value (untreated Dp71-null mice, BaCl2 1 mM, 118.0±2.3% without Ba2+)?
Answer: The value was 122.3+3.6%.

Question: Which “cross-sectional area of Müller cell somata after 4-minute perfusion with hypotonic solution, in percent of the soma area before osmotic challenge” value (Müller cells from Dp71-null mice, 300 μM, preincubated, hypotonic solution 60% of control osmolarity) does the source give for `O=C(CBr)c1ccc(Br)cc1` [4-bromophenacyl bromide] here?
Answer: The value was 103.3±2.1%.

Question: What about the “effect on osmotic swelling of Müller cells (FIG. 3C)” value (shortened to “effect on osmotic swelling”) [1] of the same compound?
Answer: Its value is “blocked the swelling”.

Question: `COc1ccc2c(c1)c(CC(=O)O)c(C)n2C(=O)c1ccc(Cl)cc1` [indomethacin] was tested. Which “cross-sectional area of Müller cell somata after 4-minute perfusion with hypotonic solution, in percent of the soma area before osmotic challenge” value (Müller cells from Dp71-null mice, 10 μM, preincubated, hypotonic solution 60% of control osmolarity) did it give?
Answer: Its value is 104.4±1.6%.

Question: And the “effect on osmotic swelling” value [1]?
Answer: Its value is “blocked the swelling”.

Question: `Nc1ncnc2c1ncn2[C@@H]1O[C@H](CO)[C@@H](O)[C@H]1O` [adenosine] was tested. Which “effect on osmotic swelling” value [1] did it give?
Answer: The value was “blocked the swelling”.

Question: And the “cross-sectional area of Müller cell somata after 4-minute perfusion with hypotonic solution, in percent of the soma area before osmotic challenge” value (untreated retinas from Dp71-null mice, adenosine 10 μM applied with the hypotonic solution (60% of control osmolarity), 120.3±3.8% without adenosine)?
Answer: The value was 103.2±2.2%.
